# “And” between values parts separate entries of the source, which are not always exact repeats. Equal entries are not always repeated. No end group written: not given here.
# Tests used:
# human His6-TWEAK protein = biological target: T1, human His6-TWEAK protein (Homo sapiens, UniProt O43508); assay: SPR binding of peptides to immobilized His6-TWEAK; settings: 25 °C, 1:1 Langmuir global fit, representative of at least three independent experiments
# T1 construct: purchased R&D Systems
# T1 sequence (O43508 97-249 limits assumed): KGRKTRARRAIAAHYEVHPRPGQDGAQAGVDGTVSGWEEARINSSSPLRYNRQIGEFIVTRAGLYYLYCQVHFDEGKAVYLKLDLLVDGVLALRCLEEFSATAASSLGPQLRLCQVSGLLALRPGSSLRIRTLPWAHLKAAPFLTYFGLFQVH
# From the text: SPR biosensor interaction analysis, a label-free screening approach, was used for real-time monitoring of the kinetics and affinity of peptide hits to TWEAK previously identified by cell-based screening. Peptides from pools 1 and 5 were selected both as positive (49, 30, 35 and 43) and negative hits (1 and 42). For our purposes, TWEAK was chosen as ligand, while peptides were chosen as analytes and passed across ligand-derivatized surface. Nitrilotriacetic acid-coated sensor chips (NTA chip) and a coupling approach that results in the capture of a His6-protein in a non-random orientation by the His6 epitope prior to direct free amine-based covalent coupling was used for histidine-tagged TWEAK immobilization.
# After chip validation, peptides selected on our cell-based microarray screening were tested.
# For each titration, a zero-analyte surface as a control was subtracted from test sensorgram as well as non-specific binding to the blank flow cell without protein; and the chip surface was regenerated in order to remove any remaining analyte. The black curves show the experimental data, while the overlaid red lines represent a global fit of the entire data set to a 1:1 Langmurian interaction model. The fitting process provided both kinetic association and dissociation rate constants (Ka and Kd), as well as equilibrium dissociation constant (KD) values indicated in Figure 6.
# Binding assays were performed at 25 °C in a Biacore 3000 instrument (GE Healthcare, Uppsala, Sweden) using nitrilotriacetic (NTA) sensor chips (GE Healthcare) and HBS-EP (0.01 M HEPES pH 7.4, 0.15 M NaCl, 3 mM EDTA, 0.005 % v/v Surfactant P20) as running buffer. Histidine-tagged human TWEAK (His6-TWEAK) protein (R&D Systems, Minneapolis, MN, USA) was covalently immobilized on the sensor surface using a capture coupling method. Briefly, the NTA surface was first stabilized by injection of regeneration buffer (20 μL EDTA-containing running buffer at 20 μL/min) followed by Ni^2+ binding to the surface (40 μL of 500 μM NiCl2 in running buffer at 20 μL/min). The carboxymethyl dextran surface was then activated for primary amine coupling by injecting coupling solution (30 μL of a 1:1 N-hydroxysuccinimide (NHS)/1-ethyl-3-[3-(dimethylamino)-propyl]carbodiimide hydrochloride (EDC) mixture at 5 μL/min). His6-TWEAK protein in pH 7.4 running buffer was then injected over the surface (60 μL of 10 μg/mL His6-TWEAK at 5 μL/min). To block uncoupled primary amines on the sensor surface, ethanolamine was passed over the surface (35 μL 1M ethanolamine at 5 μL/min). Ligand surfaces were finally conditioned with a 20 µL injection of regeneration solution containing 350 mM EDTA at 20 μL/min. Immobilization levels ranged from 1500 to 7000 resonance units (RUimmob) to test different ligand densities. A blank flow cell on the chip was created by simple injection of 20 μL of regeneration buffer injected over the sensor surface.
# Binding experiments using a monoclonal anti-TWEAK antibody (Abcam ref. 199405, Cambridge, UK) were run to ascertain adequate functionalization of the immobilized surface. Selected synthetic TWEAK-Fn14 inhibitory peptides at two-fold serial dilutions from 800 µM to 0 µM in running buffer were flown over the chip for 5 min at 35 µL/min. The dissociation phase was monitored for 10 min at the same flow rate and followed by a regeneration step with 10 µL of 18 mM NaOH. Specific binding responses for each channel were obtained by double referencing; subtracting non-specific binding to the blank flow cell plus an internal reference standard, namely buffer injection response. Each sample was run in triplicate. The experimental data were fitted to a 1:1 Langmuir binding model by the BIAevaluation software version 4.1 (GE Healthcare, Uppsala, Sweden).
# [1] = system: TWEAK-Fn14 signalling pathway, BRV5 cells; assay: Cell-based screening of individual peptides, gene expression microarray in TWEAK-stimulated BRV5 cells; design: species or system human; settings: 6 h; for BIRC2 mRNA expression (normalized to NARS2) / HSP90B1 mRNA expression (normalized to NARS2) / IL6 mRNA expression (normalized to NARS2) / JUN mRNA expression (normalized to NARS2) / MAP4K4 mRNA expression (normalized to NARS2) / MAPK14 mRNA expression (normalized to NARS2) / NFKB2 mRNA expression (normalized to NARS2) / TNFRSF12A mRNA expression (normalized to NARS2) / TRAF2 mRNA expression (normalized to NARS2): 450 µM
# From the text: Pool 1 and 5 were therefore deconstructed to assess the effect of individual peptides and their activity on same cell-based screening. Pools 1 and 5 were composed of peptides 45, 46, 42, 3, 49, 11, and 13; and of peptides 1, 9, 30, 35, 41, 43, 7, and 14, respectively. As before, and shown in Figure 4B, the level of expression of probe genes on TWEAK-stimulated (T) BRV5 cells is overall higher than on non-stimulated (NT) one. […] The structural model of peptides 43, 30, 35 and 49 bound to TWEAK can be seen in Figure 5 and Supplementary Materials Figures S4–S6, respectively.
# Three different cell lines were used in this study: BRV5, MDA-MB 435 (435-P), and HT29. The BRV5 is a highly metastatic brain cell line, obtained in one of our laboratories by primary culture from a brain of a nude mouse inoculated with human 435-Br1 brain metastatic cells, as previously described and used as a model to test the peptides in cell cultures. […] The triple negative 435-P cell line is a useful human breast cancer model that expresses both epithelial and melanocytic markers, and was included as the parental cell from which 435-Br1 metastatic variant was initially originated (both cell lines kindly provided by Dr Fabra at IDIBELL Institute, Hospitalet de Llobregat, Spain). Finally, HT29 human colon carcinoma cells obtained from the European Type Culture Collection (ECACC 91072201) were used as a positive control of TWEAK dependent Fn14 over-expressing cells to evaluate TWEAK-Fn14 axis of brain metastatic variants.
# Appropriate cell culture conditions were established as the controls needed in the expression of genes with and without peptides and with and without TWEAK activation, both as pools and individually (see Supplementary Materials Figure S2). The protocol started with the seeding of 125,000 cells/well in 500 µL of culture media supplemented with 10% fetal bovine serum (CM+FBS10%) in 24-well dishes for 24 h before removing FBS (CM-FBS). After overnight starvation in CM-FBS culture, different peptide treatment conditions (at final concentration of 450 µM) were established in the presence or absence of TWEAK (25 ng/mL final concentration) (Peprotech EC, Ltd., London, UK). Some cells were treated with peptides at a single, unique, initial dose (time 0) while other were treated with repeated doses to account for the effect cell-culture degradation. These include a repeated treatment every hour (i.e., […]), every two hours (time 0, 2, and 4) and every three hours (time 0 and 3)—see Supplementary Materials Figure S2 for diagrammatic depiction. At time 6 (after six hours) cells were lysed and RNA extracted for transcriptomic analyses (see next). Cell were culture for six hours as this was the time needed to achieve the highest upregulation of the TWEAK-Fn14 axis upon TWEAK treatment as shown in previous time-course RT-PCR experiments (see Figure 2).
# RNA from cells was extracted 6 h after treatments by direct lysis on the well. The RNeasy Micro kit (Qiagen, Hilden, Germany) was used to isolate total RNA from cell lysate following manufacturer’s protocols including an additional step of digestion with DNase I (Qiagen, Hilden, Germany). Total RNA concentration was measured in a NanoDrop 1000 spectrophotometer (Thermo Scientific, Waltham, MA, USA). The RNA extracted from treated and untreated cells (see above) was used as a proxy for gene expression.
# The quantitative RT-PCR was performed using Fluidigm Dynamic Array FlexSix array with the specific primers for gene expression (Delta Genes Assays, Wet lab tested on Dynamic Array IFC) designed to RefSeq for detection by pPCR EvaGreen assay (Dynamic Array FlexSix, Fluidigm Corporation). Each Flex Six IFC has a total of six independent partitions. Each partition has a 12 × 12 format (12 assay inlets and 12 sample inlets) and will be run independently as a separate experimental run. […]
# [2] = individual peptides, BRV5 + TWEAK, mean of replicate columns
# [3] = individual peptides, BRV5 + TWEAK, replicate column 1
# [4] = individual peptides, BRV5 + TWEAK, replicate column 2
# [5] = individual peptides, BRV5 + TWEAK, normalized to NARS2, listed as P4
substance,measurement,setting,value
SYTDVQDS-NH2 [Peptide 49],kon,"human His6-TWEAK protein; HBS-EP pH 7.4, Biacore 3000, NTA chip, read-out: ka",4.88 M⁻¹ s⁻¹
same,Kd,"human His6-TWEAK protein; figure 6, HBS-EP pH 7.4, 6.25 µM to 800 µM peptide",533 µM
SGVSTAQLD [Peptide 4],regulation of probe genes by individual peptides,"[1]; BRV5 + TWEAK 25 ng/mL, peptides 450 µM",induced a higher level of expression of the gene
same,BIRC2 mRNA expression (normalized to NARS2),[1]; [2],0.6267
same,HSP90B1 mRNA expression (normalized to NARS2),[1]; [2],2.423
same,IL6 mRNA expression (normalized to NARS2),[1]; [2],0.001966
same,JUN mRNA expression (normalized to NARS2),[1]; [2],0.1025
same,MAP4K4 mRNA expression (normalized to NARS2),[1]; [2],0.2128
same,MAPK14 mRNA expression (normalized to NARS2),[1]; [2],0.1993
same,NFKB2 mRNA expression (normalized to NARS2),[1]; [2],0.04458
same,TNFRSF12A mRNA expression (normalized to NARS2),[1]; [2],0.01499
same,TRAF2 mRNA expression (normalized to NARS2),[1]; [2],0.01397
same,BIRC2 mRNA expression (normalized to NARS2),[1]; [3],0.6069
same,HSP90B1 mRNA expression (normalized to NARS2),[1]; [3],2.308
same,IL6 mRNA expression (normalized to NARS2),[1]; [3],0.001514
same,JUN mRNA expression (normalized to NARS2),[1]; [3],0.09341
same,MAP4K4 mRNA expression (normalized to NARS2),[1]; [3],0.1972
same,MAPK14 mRNA expression (normalized to NARS2),[1]; [3],0.1927
same,NFKB2 mRNA expression (normalized to NARS2),[1]; [3],0.04237
same,TNFRSF12A mRNA expression (normalized to NARS2),[1]; [3],0.01676
same,TRAF2 mRNA expression (normalized to NARS2),[1]; [3],0.01481
same,BIRC2 mRNA expression (normalized to NARS2),[1]; [4],0.6465
same,HSP90B1 mRNA expression (normalized to NARS2),[1]; [4],2.538
same,IL6 mRNA expression (normalized to NARS2),[1]; [4],0.002418
same,JUN mRNA expression (normalized to NARS2),[1]; [4],0.1116
same,MAP4K4 mRNA expression (normalized to NARS2),[1]; [4],0.2284
same,MAPK14 mRNA expression (normalized to NARS2),[1]; [4],0.2059
same,NFKB2 mRNA expression (normalized to NARS2),[1]; [4],0.04678
same,TNFRSF12A mRNA expression (normalized to NARS2),[1]; [4],0.01322
same,TRAF2 mRNA expression (normalized to NARS2),[1]; [4],0.01313
same,BIRC2 expression Z-Score,[1]; [5],0.4721
same,HSP90B1 expression Z-Score,[1]; [5],0.3256
same,IL6 expression Z-Score,[1]; [5],0.0669 and 0.06688
same,JUN expression Z-Score,[1]; [5],0.0589 and 0.05892
same,MAP4K4 expression Z-Score,[1]; [5],0.6937
same,MAPK14 expression Z-Score,[1]; [5],-0.0192 and -0.01918
same,NFKB2 expression Z-Score,[1]; [5],0.3908
same,TNFRSF12A expression Z-Score,[1]; [5],-0.6289
same,TRAF2 expression Z-Score,[1]; [5],-0.2666
